Laboratory results from PMC7730458, “Rational Computational Design of Fourth-Generation EGFR Inhibitors to Combat Drug-Resistant Non-Small Cell Lung Cancer” (International Journal of Molecular Sciences, 2020).
Read-outs that look alike come from different tables or passages of the source.

Assays:
[1] = test system: Ba/F3 cell lines with the wild type EGFR; assay: cell proliferation inhibition assay, Ba/F3 wild-type EGFR; details: Mus musculus, BaF3, 72 h, read-out: IC50 Ba/F3
Procedure: (§3) The cells were treated with various concentrations of the compounds in duplicate. After 72 h, the fluorescence signals were measured at an excitation wavelength of 540 nm and an emission wavelength of 590 nm using a microplate reader. More specifically, the number of living cells was determined with CellTiter-Glo® Luminescent Cell Viability Assay (Promega).

[2] = test system: Ba/F3 cell lines with the d746-750/T790M/C797S mutant EGFR; assay: cell proliferation inhibition assay, Ba/F3 triple mutant EGFR; details: for IC50: Mus musculus, BaF3, 72 h, read-out: IC50 Ba/F3^d746-750/T790M/C797S; for Selectivity: Table 4, Ba/F3 wild type IC50 over mutant IC50
Procedure: as §3

[3] = target: T1, d746-750/T790M/C797S mutant EGFR (Homo sapiens, UniProt P00533, C797S/DEL746-750/T790M); assay: radiometric ([γ-33P]-ATP) kinase assay, triple mutant EGFR; assay type: biochemical; details: for Selectivity Index (IC50^WT/IC50^mutant): ratio of IC50 for the wild type to that for the triple mutant; for Selectivity: wild type IC50 over triple mutant IC50
T1 construct: purchased Reaction Biology Corp. (Malvern, PA, USA)
T1 sequence (P00533 with tags, fused parts or gaps DEL746-750/T790M/C797S): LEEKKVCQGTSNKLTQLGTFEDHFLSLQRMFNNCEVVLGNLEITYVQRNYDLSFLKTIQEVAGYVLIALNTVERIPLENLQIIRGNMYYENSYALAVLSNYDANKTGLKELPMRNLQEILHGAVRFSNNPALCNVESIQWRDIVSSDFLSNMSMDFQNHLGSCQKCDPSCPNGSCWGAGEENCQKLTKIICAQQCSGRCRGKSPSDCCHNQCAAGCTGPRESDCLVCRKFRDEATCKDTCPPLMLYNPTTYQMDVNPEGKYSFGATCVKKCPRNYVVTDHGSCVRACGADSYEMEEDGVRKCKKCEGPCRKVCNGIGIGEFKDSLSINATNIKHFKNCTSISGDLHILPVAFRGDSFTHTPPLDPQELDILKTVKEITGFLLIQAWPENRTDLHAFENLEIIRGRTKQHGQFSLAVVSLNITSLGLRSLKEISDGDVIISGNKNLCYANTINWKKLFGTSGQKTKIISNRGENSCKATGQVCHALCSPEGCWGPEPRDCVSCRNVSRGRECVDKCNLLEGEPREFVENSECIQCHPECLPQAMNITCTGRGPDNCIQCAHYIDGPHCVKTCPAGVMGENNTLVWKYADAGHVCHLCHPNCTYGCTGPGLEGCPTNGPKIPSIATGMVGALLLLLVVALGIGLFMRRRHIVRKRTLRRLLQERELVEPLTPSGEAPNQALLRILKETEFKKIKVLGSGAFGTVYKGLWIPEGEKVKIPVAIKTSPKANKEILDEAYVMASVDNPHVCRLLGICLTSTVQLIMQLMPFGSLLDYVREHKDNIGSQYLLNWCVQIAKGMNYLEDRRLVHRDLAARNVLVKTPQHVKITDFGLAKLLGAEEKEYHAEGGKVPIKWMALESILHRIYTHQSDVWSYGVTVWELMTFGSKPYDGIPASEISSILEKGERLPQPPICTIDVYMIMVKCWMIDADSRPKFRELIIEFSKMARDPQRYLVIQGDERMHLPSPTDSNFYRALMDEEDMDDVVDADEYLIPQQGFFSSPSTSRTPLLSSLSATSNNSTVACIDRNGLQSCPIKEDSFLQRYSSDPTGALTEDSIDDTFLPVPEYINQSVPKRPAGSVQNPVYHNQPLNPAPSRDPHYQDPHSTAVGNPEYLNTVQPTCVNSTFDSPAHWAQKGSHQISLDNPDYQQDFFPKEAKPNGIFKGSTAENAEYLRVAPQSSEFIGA
Procedure: (§1) This small number of virtual hits exemplifies the difficulty in discovering the fourth-generation inhibitors that are specific for the triple mutant. This can be understood in the context of the high structural similarity between the mutant and the wild type. All virtual hits were assessed for the presence of inhibitory activity against the d746-750/T790M/C797S mutant and the wild type via in vitro radiometric ([γ-^33P]-ATP) kinase assays (Reaction Biology Corp., Malvern, PA, USA). As a consequence of virtual and experimental screening, four molecules were identified as low-micromolar inhibitors of d746-750/T790M/C797S mutant. Actually, none of the four molecules have previously been reported as EGFR kinase inhibitors. With respect to disproving the possibility of acting as a false positive in enzyme inhibition assays, all four inhibitors were examined in the public ZINC database to confirm the lack of any substructure in pan assay interference compounds (PAINS).
(§2) The inhibitory activities of all compounds with respect to the wild type and the d746-750/T790M/C797S mutant of EGFR were measured by Reaction Biology Corp. (Malvern, PA, USA) using the radiometric kinase assays ([γ-^33P]-ATP). Briefly, the enzymatic reaction mixtures contained an artificial substrate peptide, poly-Glu-Tyr (4:1) in freshly prepared base reaction buffer (20 mM HEPES of pH 7.5, 10 mM MgCl2, 1 mM EGTA, 0.02% Brij-35, 0.02 mg/mL BSA, 0.1 mM Na3VO4, 2 mM DTT, 1% DMSO). Wild-type and mutant EGFR were delivered into the substrate solution and gently mixed. Each inhibitor in 100% DMSO in a serial dilution was then delivered to the reaction mixture using the acoustic dispensing system (Echo550; nanoliter range). To initiate the enzymatic reaction, ^33P-ATP with a specific activity of 10 μCi/μL was added into the reaction mixture, and the mixture was further incubated for 2 h at room temperature. Radioactivity was then monitored by the filter-binding method after reactions were spotted onto P81 ion exchange paper and the filters were washed extensively in 0.75% phosphoric acid. Kinase activity data were expressed as the percent remaining kinase activity in test samples compared to vehicle (dimethyl sulfoxide) reactions. IC50 values and curve fits were calculated with Prism Software (GraphPad Software) at 10 different concentrations. Staurosporine was employed as the positive control in this study.

[4] = target: T2, wild type EGFR (Homo sapiens, UniProt P00533); assay: radiometric ([γ-33P]-ATP) kinase assay, wild-type EGFR; assay type: biochemical
T2 construct: purchased Reaction Biology Corp. (Malvern, PA, USA)
T2 sequence (P00533 25-1210): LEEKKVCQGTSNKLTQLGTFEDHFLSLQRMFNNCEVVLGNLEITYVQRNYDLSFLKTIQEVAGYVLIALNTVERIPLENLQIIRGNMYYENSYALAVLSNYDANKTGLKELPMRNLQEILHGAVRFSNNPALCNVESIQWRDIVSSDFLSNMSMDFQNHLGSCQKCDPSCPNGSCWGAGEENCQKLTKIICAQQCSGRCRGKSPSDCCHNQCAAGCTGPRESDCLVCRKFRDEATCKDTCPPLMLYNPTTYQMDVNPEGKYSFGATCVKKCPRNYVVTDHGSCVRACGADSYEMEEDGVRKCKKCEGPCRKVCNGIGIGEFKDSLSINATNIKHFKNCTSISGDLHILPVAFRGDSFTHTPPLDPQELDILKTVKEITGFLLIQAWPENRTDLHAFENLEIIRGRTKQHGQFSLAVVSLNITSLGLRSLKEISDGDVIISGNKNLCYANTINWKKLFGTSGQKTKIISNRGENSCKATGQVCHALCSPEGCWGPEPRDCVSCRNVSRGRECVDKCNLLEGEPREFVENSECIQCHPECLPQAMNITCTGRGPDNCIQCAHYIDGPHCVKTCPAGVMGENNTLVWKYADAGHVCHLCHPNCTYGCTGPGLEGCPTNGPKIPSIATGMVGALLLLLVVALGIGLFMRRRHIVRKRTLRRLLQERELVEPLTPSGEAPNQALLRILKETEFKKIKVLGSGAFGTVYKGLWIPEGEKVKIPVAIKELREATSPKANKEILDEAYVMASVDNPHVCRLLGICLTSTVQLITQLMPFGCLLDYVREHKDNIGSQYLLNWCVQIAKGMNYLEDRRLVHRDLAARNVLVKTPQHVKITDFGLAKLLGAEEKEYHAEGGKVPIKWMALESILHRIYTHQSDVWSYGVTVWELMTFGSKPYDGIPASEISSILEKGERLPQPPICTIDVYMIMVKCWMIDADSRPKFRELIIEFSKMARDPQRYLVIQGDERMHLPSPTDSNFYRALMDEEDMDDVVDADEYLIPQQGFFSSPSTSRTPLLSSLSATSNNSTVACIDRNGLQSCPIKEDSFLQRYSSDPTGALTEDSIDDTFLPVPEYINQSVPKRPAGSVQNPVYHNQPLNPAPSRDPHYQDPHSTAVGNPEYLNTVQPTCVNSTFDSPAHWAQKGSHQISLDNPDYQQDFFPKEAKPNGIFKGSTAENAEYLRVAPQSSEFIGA
Procedure: as §1, §2

[5] = Table 1, mean ± standard deviations of two experiments, read-out: IC50 d746-750/T790M/C797S
[6] = Table 1, mean ± standard deviations of two experiments, read-out: IC50 Wild Type
[7] = Table 2, derivatives of 1, mean ± SD of two experiments, read-out: IC50 EGFR^d746-750/T790M/C797S
[8] = Table 2, derivatives of 1, wild type, mean ± SD of two experiments, read-out: IC50 EGFR
[9] = Table 3, derivatives of 2, mean ± SD of two experiments, read-out: IC50 EGFR^d746-750/T790M/C797S
[10] = Table 3, derivatives of 2, wild type, mean ± SD of two experiments, read-out: IC50 EGFR

Compound	Selectivity ([3]; Table 2)	Selectivity ([3]; Table 3)	IC50 [3, 7] [µM]	IC50 [4, 8] [µM]	IC50 [3, 9] [µM]	IC50 [4, 10] [µM]	also measured
COc1cc(N2CCC(N3CCN(C)CC3)CC2)ccc1Nc1ncc(Cl)c(Nc2ccccc2P(C)(C)=O)n1 [Brigatinib, reference compound]	–	–	–	–	–	–	IC50 [1]: 1.56 ± 0.45 µM; IC50 [2]: 0.067 ± 0.014 µM; Selectivity [2]: 23.3
CC1CCCCN1Cc1c(O)ccc2c1O/C(=C\c1cc3ccccc3o1)C2=O (stereo not shown) [Compound 1]	34.5	–	–	–	–	–	IC50 [3, 5]: 2.11 ± 0.56 µM; Selectivity Index (IC50^WT/IC50^mutant) ([3]; Table 1): 34.5; IC50 [4, 6]: 72.7 ± 4.8 µM
Oc1ccccc1-c1nc(NCCN2CCOCC2)c2ccccc2n1 [Compound 2]	–	21.4	–	–	–	–	IC50 [3, 5]: 1.73 ± 0.38 µM; Selectivity Index (IC50^WT/IC50^mutant) ([3]; Table 1): 21.4; IC50 [4, 6]: 37.1 ± 2.3 µM
COc1ccccc1Nc1nc(N)nc(-c2oc3ccccc3c2C)n1 [Compound 3]	–	–	–	–	–	–	IC50 [3, 5]: 2.89 ± 0.91 µM; Selectivity Index (IC50^WT/IC50^mutant) ([3]; Table 1): 12.3; IC50 [4, 6]: 35.5 ± 3.5 µM
c1ccc(CNc2ncnc3oc(-c4ccccc4)c(-c4ccccc4)c23)cc1 [Compound 4]	–	–	–	–	–	–	IC50 [3, 5]: 0.802 ± 0.055 µM; Selectivity Index (IC50^WT/IC50^mutant) ([3]; Table 1): 0.00733; biochemical potency against the wild-type EGFR (in words) [4]: nanomolar level; IC50 [4, 6]: 0.00588 ± 0.00098 µM; higher inhibitory activity against the wild type than against the d746-750/T790M/C797S mutant ([4]; enzyme assays): 136 fold
O=C1/C(=C/c2cc3ccccc3o2)Oc2c1ccc(O)c2CN1CCCCC1 [Compound 5, (Z)-2-(benzofuran-2-ylmethylene)-6-hydroxy-7-(piperidin-1-ylmethyl)benzofuran-3(2H)-one]	22.8	–	3.01 ± 0.73	68.7 ± 3.4	–	–	–
CC1CCCN(Cc2c(O)ccc3c2O/C(=C\c2cc4ccccc4o2)C3=O)C1 (stereo not shown) [Compound 6, (Z)-2-(benzofuran-2-ylmethylene)-6-hydroxy-7-((3-methylpiperidin-1-yl)methyl)benzofuran-3(2H)-one]	33.9	–	1.94 ± 0.35	65.7 ± 6	–	–	–
CC1CCN(Cc2c(O)ccc3c2O/C(=C\c2cc4ccccc4o2)C3=O)CC1 [Compound 7, (Z)-2-(benzofuran-2-ylmethylene)-6-hydroxy-7-((4-methylpiperidin-1-yl)methyl)benzofuran-3(2H)-one]	14.8	–	5.29 ± 1.8	78.7 ± 4.6	–	–	–
COc1ccc2oc(/C=C3\Oc4c(ccc(O)c4CN4CCCC(C)C4)C3=O)cc2c1 (stereo not shown) [Compound 8, (Z)-6-hydroxy-2-((5-methoxybenzofuran-2-yl)methylene)-7-((3-methylpiperidin-1-yl)methyl)benzofuran-3(2H)-one]	>4.98	–	20.1 ± 7.2	> 100	–	–	–
O=C1/C(=C/c2cc3ccccc3o2)Oc2c1ccc(O)c2CN1CCNCC1 [Compound 9, (Z)-2-(benzofuran-2-ylmethylene)-6-hydroxy-7-(piperazin-1-ylmethyl)benzofuran-3(2H)-one]	–	–	1.1 ± 0.36	21.3 ± 6.3	–	–	–
COc1ccc2oc(/C=C3\Oc4c(ccc(O)c4CN4CCNCC4)C3=O)cc2c1 [Compound 10, (Z)-6-hydroxy-2-((5-methoxybenzofuran-2-yl)methylene)-7-(piperazin-1-ylmethyl)benzofuran-3(2H)-one]	22.6	–	1.63 ± 0.43	36.8 ± 3.9	–	–	–
O=C1/C(=C/c2cc3cc(O)ccc3o2)Oc2c1ccc(O)c2CN1CCNCC1 [Compound 11, (Z)-6-hydroxy-2-((5-hydroxybenzofuran-2-yl)methylene)-7-(piperazin-1-ylmethyl)benzofuran-3(2H)-one]	1.45	–	0.715 ± 0.242	1.04 ± 0.16	–	–	–

Second part, led by results:

Selectivity ([3]; Table 2)	Selectivity ([3]; Table 3)	IC50 [3, 7] [µM]	IC50 [4, 8] [µM]	IC50 [3, 9] [µM]	IC50 [4, 10] [µM]	Compound	also measured
–	>96.9	–	–	0.516 ± 0.206	> 50	CCN(CC)CCCNc1nc(-c2ccccc2O)nc2ccccc12 [Compound 12, 2-(4-((3-(diethylamino)propyl)amino)quinazolin-2-yl)phenol]	–
–	319	–	–	0.0265 ± 0.0084	8.45 ± 1.89	CCN(CC)CCCNc1nc(-c2cc(C#N)ccc2O)nc2ccccc12 [Compound 13, 3-(4-((3-(diethylamino)propyl)amino)quinazolin-2-yl)-4-hydroxybenzonitrile]	–
–	>44.6	–	–	1.12 ± 0.21	> 50	Oc1ccccc1-c1nc(NCc2cscn2)c2ccccc2n1 [Compound 14, 2-(4-((thiazol-4-ylmethyl)amino)quinazolin-2-yl)phenol]	–
–	>693	–	–	–	> 50	N#Cc1ccc(O)c(-c2nc(NCc3cc[nH]c3)c3ccccc3n2)c1 [Compound 16, 3-(4-(((1H-pyrrol-3-yl)methyl)amino)quinazolin-2-yl)-4-hydroxybenzonitrile]	–
–	>84.3	–	–	0.593 ± 0.076	> 50	N#Cc1ccc(O)c(-c2nc(NCc3cocn3)c3ccccc3n2)c1 [Compound 17, 4-hydroxy-3-(4-((oxazol-4-ylmethyl)amino)quinazolin-2-yl)benzonitrile]	–
–	>6693	–	–	0.00747 ± 0.00039	> 50	N#Cc1ccc(O)c(-c2nc(NCc3c[nH]cn3)c3ccccc3n2)c1 [Compound 18, 3-(4-(((1H-imidazol-4-yl)methyl)amino)quinazolin-2-yl)-4-hydroxybenzonitrile]	IC50 [1]: > 5 µM; biochemical potency against the d746-750/T790M/C797S mutant (in words) [3]: low-nanomolar level; selectivity in the inhibition of EGFR^d746-750/T790M/C797S over the wild type ([3]; enzyme assays): more than 6690 fold; antiproliferative activity against the d746-750/T790M/C797S mutant cell (in words) [2]: submicromolar level; IC50 [2]: 0.78 ± 0.31 µM; Selectivity [2]: >6.41
–	>14793	–	–	0.00338 ± 0.00102	> 50	Cn1cnc(CNc2nc(-c3cc(C#N)ccc3O)nc3ccccc23)c1 [Compound 19, 4-hydroxy-3-(4-(((1-methyl-1H-imidazol-4-yl)methyl)amino)quinazolin-2-yl)benzonitrile]	IC50 [1]: 2.47 ± 0.89 µM; biochemical potency against the d746-750/T790M/C797S mutant (in words) [3]: low-nanomolar; selectivity index / factor, triple mutant over the wild type ([3]; enzyme assays): higher than 10^4; antiproliferative activity against the d746-750/T790M/C797S mutant cell (in words) [2]: submicromolar level; IC50 [2]: 0.74 ± 0.22 µM; Selectivity [2]: 3.34
–	>10331	–	–	0.00484 ± 0.00063	> 50	N#Cc1ccc(O)c(-c2nc(NCCc3c[nH]cn3)c3ccccc3n2)c1 [Compound 20, 3-(4-((2-(1H-imidazol-4-yl)ethyl)amino)quinazolin-2-yl)-4-hydroxybenzonitrile]	biochemical potency against the d746-750/T790M/C797S mutant (in words) [3]: low-nanomolar; selectivity index / factor, triple mutant over the wild type ([3]; enzyme assays): higher than 10^4
–	118	–	–	0.00793 ± 0.00168	0.935 ± 0.173	Cn1cnc(CNc2nc(-c3cc(C=O)ccc3O)nc3ccccc23)c1 [Compound 21, 4-hydroxy-3-(4-(((1-methyl-1H-imidazol-4-yl)methyl)amino)quinazolin-2-yl)benzaldehyde]	–
